Experimental data: the RepoRT retention time repository (doi:10.1016/j.jchromb.2020.122105)

Columns and labels:
Conditions in all cases: stereoisomer not certain
[1] = HILIC, Thermo Scientific Accucore HILIC, 100 × 2.1 mm, 2.6 µm, 0.5 mL/min, estimated dead time 0.44 min; A: water + 0.1% formic acid + 10 mM ammonium formate, pH 3; B: 5% water + 95% acetonitrile + 0.1% formic acid + 10 mM ammonium formate, pH 3; gradient (min/%B) 0/95 5/95 20/57 25/57 30/95 40/95
[2] = RP, Waters ACQUITY UPLC BEH C18, 100 × 2.1 mm, 1.7 µm, 0.2 mL/min, estimated dead time 1.1 min; A: water + 0.1% formic acid, pH 3; B: methanol + 0.1% formic acid, pH 3; gradient (min/%B) 0/5 5/5 25/100 30/100 30.1/5 35/5
[3] = HILIC, Merck SeQuant ZIC-HILIC, 150 × 2.1 mm, 5 µm, 0.75 mL/min, estimated dead time 0.44 min; A: water + 0.1% acetic acid + 10 mM ammonium acetate, pH 4; B: 5% water + 95% acetonitrile + 0.1% acetic acid + 10 mM ammonium acetate, pH 4; gradient (min/%B) 0/95 5/95 20/57 25/57 30/95 40/95
[4] = RP, Waters CORTECS T3, 100 × 2.1 mm, 2.7 µm, 0.25 mL/min, estimated dead time 0.88 min; A: water + 0.1% formic acid, pH 3; B: methanol + 0.1% formic acid, pH 3; gradient (min/%B) 0/5 5/5 25/95 25.1/100 35/100 35.1/5 45/5
[5] = HILIC, Merck SeQuant ZIC-HILIC, 150 × 2.1 mm, 5 µm, 0.75 mL/min, estimated dead time 0.44 min; A: water + 10 mM ammonium formate, pH 6; B: 5% water + 95% acetonitrile + 10 mM ammonium formate, pH 6; gradient (min/%B) 0/95 5/95 20/57 25/57 30/95 40/95
[6] = HILIC, Waters XBridge BEH Amide, 100 × 2.1 mm, 2.5 µm, 0.5 mL/min, estimated dead time 0.44 min; A: water + 0.1% acetic acid + 10 mM ammonium acetate, pH 4; B: 5% water + 95% acetonitrile + 0.1% acetic acid + 10 mM ammonium acetate, pH 4; gradient (min/%B) 0/95 5/95 20/57 25/57 30/95 40/95
[7] = RP, Waters ACQUITY UPLC BEH C18, 100 × 2.1 mm, 1.7 µm, 0.1 mL/min, estimated dead time 2.2 min; A: water + 0.1% formic acid, pH 3; B: methanol + 0.1% formic acid, pH 3; gradient (min/%B) 0/5 5/5 25/95 25.1/100 35/100 35.1/5 45/5
[8] = RP, Waters CORTECS T3, 100 × 2.1 mm, 2.7 µm, 0.2 mL/min, estimated dead time 1.1 min; A: water + 0.1% formic acid, pH 3; B: methanol + 0.1% formic acid, pH 3; gradient (min/%B) 0/0 1/0 6/5 30/100 35/100 35.1/0 40/0
[9] = RP, Thermo Scientific Hypercarb, 150 × 2.1 mm, 5 µm, 0.1 mL/min, estimated dead time 3.3 min; A: water + 0.1% formic acid, pH 3; B: methanol + 0.1% formic acid, pH 3; gradient (min/%B) 0/5 5/5 20/100 35/100 35.1/5 45/5
[10] = RP, Waters ACQUITY UPLC BEH C18, 100 × 2.1 mm, 1.7 µm, 0.2 mL/min, estimated dead time 1.1 min; A: water + 0.025% formic acid + 20 mM ammonium acetate + 0.055% ammonium hydroxide, pH 7; B: methanol; gradient (min/%B) 0/5 5/5 25/100 30/100 30.1/5 35/5
[11] = RP, Waters CORTECS T3, 100 × 2.1 mm, 2.7 µm, 0.3 mL/min, estimated dead time 0.73 min; A: water + 0.1% formic acid, pH 3; B: methanol + 0.1% formic acid, pH 3; gradient (min/%B) 0/0 5/0 25/100 30/100 30.1/0 35/0
[12] = RP, Waters CORTECS T3, 100 × 2.1 mm, 2.7 µm, 0.15 mL/min, estimated dead time 1.5 min; A: water + 0.1% formic acid, pH 3; B: methanol + 0.1% formic acid, pH 3; gradient (min/%B) 0/5 5/5 25/95 25.1/100 35/100 35.1/5 45/5
[13] = RP, Waters CORTECS T3, 100 × 2.1 mm, 2.7 µm, 0.2 mL/min, estimated dead time 1.1 min; A: water + 0.045% formic acid + 0.11% ammonium hydroxide, pH 7; B: methanol; gradient (min/%B) 0/5 5/5 25/95 25.1/100 35/100 35.1/5 45/5
[14] = RP, Waters CORTECS T3, 100 × 2.1 mm, 2.7 µm, 0.3 mL/min, estimated dead time 0.73 min; A: water + 0.1% formic acid, pH 3; B: methanol + 0.1% formic acid, pH 3; gradient (min/%B) 0/0 1/0 6/5 30/100 35/100 35.1/0 40/0
[15] = RP, Waters CORTECS T3, 100 × 2.1 mm, 2.7 µm, 0.2 mL/min, estimated dead time 1.1 min; A: water + 0.1% formic acid, pH 3; B: methanol + 0.1% formic acid, pH 3; gradient (min/%B) 0/5 5/5 25/95 25.1/100 35/100 35.1/5 45/5
[16] = RP, Waters ACQUITY UPLC BEH C18, 100 × 2.1 mm, 1.7 µm, 0.1 mL/min, estimated dead time 2.2 min; A: water + 0.1% formic acid, pH 3; B: methanol + 0.1% formic acid, pH 3; gradient (min/%B) 0/5 5/5 25/95 25.1/100 35/100 35.1/5 45/5; remark: listed apart in the source
[17] = RP, Waters ACQUITY UPLC BEH C18, 100 × 2.1 mm, 1.7 µm, 0.2 mL/min, estimated dead time 1.1 min; A: water + 0.025% formic acid + 20 mM ammonium acetate + 0.055% ammonium hydroxide, pH 7; B: methanol; gradient (min/%B) 0/5 5/5 25/100 30/100 30.1/5 35/5; remark: listed apart in the source
[18] = RP, Waters ACQUITY UPLC BEH C18, 100 × 2.1 mm, 1.7 µm, 0.1 mL/min, estimated dead time 2.2 min; A: water + 0.1% formic acid, pH 3; B: methanol + 0.1% formic acid, pH 3; gradient (min/%B) 0/5 5/5 25/95 25.1/100 35/100 35.1/5 45/5; remark: listed apart in the source

LC retention time [1]: 1.41 min | LC retention time [2]: 2.36 min | LC retention time [3]: 1.25 min | LC retention time [4]: 1.99 min | LC retention time [5]: 1.31 min | LC retention time [6]: 1.59 min | LC retention time [7]: 4.65 min | LC retention time [8]: 3.64 min | LC retention time [9]: 35.3 min | LC retention time [10]: 1.74 min | LC retention time [11]: 2.61 min | LC retention time [12]: 3.26 min | LC retention time [13]: 3.15 min | LC retention time [14]: 2.6 min | LC retention time [15]: 6.98 min | LC retention time [16]: 2.69 min | LC retention time [17]: 3.15 min | LC retention time [18]: 4.62 min
SMILES: c1ncc2[nH]cnc2n1 [PURINE]
